# Laboratory results as given in patent US20230088528A1, “USE OF LIPID IN PREPARATION OF NUCLEIC ACID DELIVERY REAGENT AND RELATED PRODUCT THEREOF” (INSTITUTE OF BASIC MEDICAL SCIENCES CHINESE ACADEMY OF …, priority 2019, published 2023).
# Experiments:
# [1] = In vivo delivery of lipid-nucleic acid mixture (PGY-sRNA-26) by gavage, relative intake in blood and tissues by RT-qPCR; set-up: species or system C57BL/6 male mice; settings: for oral delivery of sRNA single-chain nucleic acid into the blood, and lung, kidney, spleen, heart, and intestinal tissue of mice / oral delivery of sRNA single-chain nucleic acid into the blood, and lung, kidney, spleen, and heart tissues of mice: 100 μg lipid:1 nmol PGY-sRNA-26 per mouse, 12 hrs after gavage, vs free intake group; for number of organs into which nucleic acid is significantly delivered: among the 6 organs in the experiments
# Protocol: The concentration of a lipid solution in chloroform was 10 mg/ml (stock solution), and grouping was performed according to the lipid compound number.
# (§1) 1 nmol of small RNA (as shown in Table 2) was dissolved in 400 μl of DEPC-treated water in a glass tube, and 10 μl of a corresponding lipid stock solution was added, to give a system containing 100 μg of lipid. The system was well mixed, heated for 15 min in a water bath at 90° C., and then naturally cooled, to obtain a lipid-nucleic acid mixture of the lipid and small RNA.
# (§2) The C57BL/6 male mice used in the experiment were purchased from Beijing Vital River Laboratory Animal Technology Co., Ltd., about 6 weeks old, and weighed 20-24 g. They were kept in an SPF animal room of the Animal Center of the Institute of Basic Medical Sciences, Chinese Academy of Medical Sciences. The mice were fasted for 12 hrs before gavage.
# (§3) The lipid-nucleic acid mixture was prepared following the method as described in Example 2. The prepared lipid-nucleic acid mixture was orally administered at a dose of 100 μg lipid:1 nmol single-stranded small RNA PGY-sRNA-26 per mouse.
# 1) Blank group: Mice (n=4) were given 500 μl of normal saline by gavage, and this group served as a blank control group;
# 2) Free intake group: Mice (n=4) were given sRNA solution (1 nmol/animal, 500 μl) by direct gavage, and this group served as a negative control group;
# 3) Lipid treatment group: Mice (n=4) were given 500 μl of the lipid-nucleic acid mixture prepared in step 2 by gavage.
# 12 hrs after gavage in each group of mice, 500 μl of blood was taken from the eyeball, and 1.5 ml of Trizol Reagent LS (purchased from Invitrogen) was added and mixed well for lysis. The tissue sample was added with 3 ml of Trizol Reagent LS. and homogenized for full lysis, wherein the tissue sample included lung/kidney/spleen/heart/gut. 1 ml of blood or tissue lysate was taken and RNA was extracted according to the following steps.
# The blood or tissue lysate was centrifuged at 4° C., and 12,000 rpm for 5 min, the pellet was discarded, and Trizol was transferred to a new centrifuge tube.
# Chloroform was added in an amount of 200 μL chloroform/mL Trizol, shaken fully until uniform, and allowed to stand at room temperature for 5 min.
# The sample was centrifuged at 4° C., and 12,000 rpm, for 15 min.
# The upper aqueous phase was pipetted to another centrifuge tube, and isopropanol was added in an amount of 0.4 mL isopropanol/mL Trizol, mixed well, and allowed to stand at a low temperature for 10-20 min.
# The sample was centrifuged at 4° C., and 12,000 rpm, for 15 min, the supernatant was discarded, and the RNA pellet was at the bottom of the tube.
# 1 mL of 75% ethanol was added, and the centrifuge tube was shaken gently, to suspend the pellet.
# The sample was centrifuged at 4° C., and 12,000 rpm, for 10 min, the supernatant was discarded, 1 mL of 75% ethanol was added, and the centrifuge tube was shaken gently, to suspend the pellet.
# The sample was centrifuged at 4° C., and 12,000 rpm, for 10 min, the supernatant was discarded, and the sample was air dried at room temperature. The RNA sample was dissolved in 50-100 μL of RNase-free H2O, and the RNA concentration was quantified by determining the OD value.
# The sRNA was reversely transcribed into cDNA using a reverse transcription kit (High-Capacity cDNA Reverse Transcription Kits, Applied Biosystems, cat. no. 4368813), following the stem-loop method (see, for example Real-time quantification of microRNAs by stem-loop RT-PCR, Nucleic Acids Res. 2005 Nov. 27; 33(20):e179, incorporated herein by reference). System for reverse transcription: template RNA (200 ng/μL) 10 μL, 10×RT buffer 2.0 μL, 25×dNTP Mix (100 mM) 0.8 μL, U6 RT stem-loop primer 2.0 μL, PGY-sRNA-26 RT stem-loop primer 2.0 μL, MultiScribe™ reverse transcriptase 1.0 μL, RNAase inhibitor 1.0 μL, and nuclease-free water H2O 1.2 μL. […]
# [2] = Pharmacokinetic study of lipid-nucleic acid mixture, gavage group, relative amount of PGY-sRNA-26 delivered to organs over time; format: in vivo, C57BL/6 male mice; settings: sampled at 3, 6, 9, 12, 24 hrs
# Protocol: as §1, §2
# as §3, with “administered or injected via the tail vein” for “administered”, “mouse. The oral dose was half that of the tail vein injection.” for “mouse.”
# (§4) 1) Blank group: Mice (n=6) were given 500 μl of normal saline by gavage, and this group served as a blank control group;
# 2) Gavage group: Mice (n=15) were given 200 μl of the lipid-nucleic acid mixture prepared in step 2 by gavage.
# (§5) At 3 hrs, 6 hrs, 9 hrs, 12 hrs and 24 hrs after administration in the gavage group and the intravenous injection group, 3 mice were taken and the RNA was extracted from each organ according to the method in Example 3.
# (§6) The RNA extracted from each organ was reverse transcribed into cDNA according to the method in Example 3.
# (§7) A quantitative PCR amplification reaction was performed according to the method in Example 3.
# (§8) 3.5. The Relative Expression Level was Calculated by the 2-ΔCt Method.
# (§9) FIGS. 46-49 respectively show the results of delivering single-stranded small RNA PGY-sRNA-26 into different target tissues at various time points by gavage using lipids 93, 94, 96, and 100. FIGS. 50-54 respectively show the results of delivering single-stranded small RNA PGY-sRNA-26 into different target tissues at various time points by injection via the tail vein using lipids 94, 96, 98, 100, and 101.
# [3] = Pharmacokinetic study of lipid-nucleic acid mixture, tail vein injection group, relative amount of PGY-sRNA-26 delivered to organs over time; format: in vivo, C57BL/6 male mice; settings: injection via the tail vein; sampled at 3, 6, 9, 12, 24 hrs
# Protocol: as §1, §2
# as §3, with “administered or injected via the tail vein” for “administered”, “mouse. The oral dose was half that of the tail vein injection.” for “mouse.”
# as §4
# 3) Intravenous injection group: Mice (n=15) were given 100 μl of the lipid-nucleic acid mixture prepared in step 2 by injection via the tail vein.
# as §5, §6, §7, §8, §9
# [4] = significant difference compared to the control, 100 μg lipid:1 nmol PGY-sRNA-26, 12 hrs
compound,measurement,setting,value
1-palmitoyl-2-hydroxy-sn-glycero-3-phosphate (sodium salt) [Lipid 96],"oral delivery of sRNA single-chain nucleic acid into the blood, and lung, kidney, spleen, heart, and intestinal tissue of mice",[1],can effectively orally deliver
same,number of organs into which nucleic acid is significantly delivered,[1],two organs
same,oral delivery of sRNA single-stranded nucleic acid into the kidney tissue of mice,[1]; [4],can significantly efficiently orally deliver
same,oral delivery of sRNA single-stranded nucleic acid into the spleen tissue of mice,[1]; [4],can significantly efficiently orally deliver
same,time at which amount of nucleic acid delivered into the intestinal tissue reaches a maximum value,[2],3 h
same,time at which amount of nucleic acid delivered into the kidney tissue reaches a maximum value,[2],3 h
same,time at which amount of nucleic acid delivered into the brain tissue reaches a maximum value,[3],6 h
same,time at which amount of nucleic acid delivered into the heart tissue reaches a maximum value,[3],9 h
same,time at which amount of nucleic acid delivered into the intestinal tissue reaches a maximum value,[3],6 h
same,time at which amount of nucleic acid delivered into the kidney tissue reaches a maximum value,[3],3 h
same,time at which amount of nucleic acid delivered into the liver tissue reaches a maximum value,[3],3 h
same,time at which amount of nucleic acid delivered into the lung tissue reaches a maximum value,[3],6 h
"CCCCCCCCCCCCCCCCC/C=C/[C@@H](O)[C@@H](N)CO [Lipid 97, D-erythro-sphingosine (C22 group)]","oral delivery of sRNA single-chain nucleic acid into the blood, and lung, kidney, spleen, heart, and intestinal tissue of mice",[1],can effectively orally deliver
same,number of organs into which nucleic acid is significantly delivered,[1],two organs
same,oral delivery of sRNA single-stranded nucleic acid into the kidney tissue of mice,[1]; [4],can significantly efficiently orally deliver
same,oral delivery of sRNA single-stranded nucleic acid into the lung tissue of mice,[1]; [4],can significantly efficiently orally deliver
"CCCCCCCCC/C=C/[C@@H](O)[C@@H](N)CO [Lipid 99, D-erythro-sphingosine (C14 group)]","oral delivery of sRNA single-chain nucleic acid into the blood, and lung, kidney, spleen, heart, and intestinal tissue of mice",[1],can effectively orally deliver
same,oral delivery of sRNA single-stranded nucleic acid into the spleen tissue of mice,[1]; [4],can significantly efficiently orally deliver
1-O-octadecyl-2-hydroxy-sn-glycero-3-phosphocholine [Lipid 94],"oral delivery of sRNA single-chain nucleic acid into the blood, and lung, kidney, spleen, heart, and intestinal tissue of mice",[1],can effectively orally deliver
same,number of organs into which nucleic acid is significantly delivered,[1],two organs
same,oral delivery of sRNA single-stranded nucleic acid into the kidney tissue of mice,[1]; [4],can significantly efficiently orally deliver
same,oral delivery of sRNA single-stranded nucleic acid into the lung tissue of mice,[1]; [4],can significantly efficiently orally deliver
same,time at which amount of nucleic acid delivered into the brain tissue reaches a maximum value,[2],3 h
same,time at which amount of nucleic acid delivered into the gastric tissue reaches a maximum value,[2],3 h
same,time at which amount of nucleic acid delivered into the heart tissue reaches a maximum value,[2],3 h
same,time at which amount of nucleic acid delivered into the intestinal tissue reaches a maximum value,[2],3 h
same,time at which amount of nucleic acid delivered into the kidney tissue reaches a maximum value,[2],9 h
same,time at which amount of nucleic acid delivered into the lung tissue reaches a maximum value,[2],9 h
same,time at which amount of nucleic acid delivered into the spleen tissue reaches a maximum value,[2],3 h
same,time at which amount of nucleic acid delivered into the brain tissue reaches a maximum value,[3],6 h
same,time at which amount of nucleic acid delivered into the gastric tissue reaches a maximum value,[3],3 h
same,time at which amount of nucleic acid delivered into the intestinal tissue reaches a maximum value,[3],6 h
same,time at which amount of nucleic acid delivered into the kidney tissue reaches a maximum value,[3],9 h
same,time at which amount of nucleic acid delivered into the spleen tissue reaches a maximum value,[3],6 h
"COC1=C(OC)C(=O)C(C/C=C(\C)CC/C=C(\C)CC/C=C(\C)CC/C=C(\C)CC/C=C(\C)CC/C=C(\C)CC/C=C(\C)CC/C=C(\C)CC/C=C(\C)CCC=C(C)C)=C(C)C1=O [Lipid 82, Q-10, Ubiquinone 50, Ubiquinone 10]","oral delivery of sRNA single-chain nucleic acid into the blood, and lung, kidney, spleen, heart, and intestinal tissue of mice",[1],can effectively orally deliver
"CCCCCCCC/C=C\CCCCCCCC(=O)OC[C@H](COP(=O)(O)OCCN)OC(=O)CCCCCCC/C=C\CCCCCCCC [Lipid 72, 1,2-dioleoyl-sn-glycero-3-phosphatidylethanolamine]","oral delivery of sRNA single-chain nucleic acid into the blood, and lung, kidney, spleen, and heart tissues of mice",[1],can effectively orally deliver
same,oral delivery of sRNA single-stranded nucleic acid into the lung tissue of mice,[1]; [4],can significantly efficiently orally deliver
N-stearoyl-D-erythro-sphingosylphosphocholine [Lipid 104],"oral delivery of sRNA single-chain nucleic acid into the blood, and lung, kidney, spleen, heart, and intestinal tissue of mice",[1],can effectively orally deliver
same,oral delivery of sRNA single-stranded nucleic acid into the blood of mice,[1]; [4],can significantly efficiently orally deliver
"CCCCCCCC/C=C\CCCCCCCC(=O)O[C@H](COC(=O)CCCCCCCCCCCCCCC)COP(=O)([O-])OCC[N+](C)(C)C [Lipid 86, 1-palmitoyl-2-oleoyl-sn-glycero-3-phosphocholine]","oral delivery of sRNA single-chain nucleic acid into the blood, and lung, kidney, spleen, heart, and intestinal tissue of mice",[1],can effectively orally deliver
"1,2-myristin-3-palmitin [Lipid 80]","oral delivery of sRNA single-chain nucleic acid into the blood, and lung, kidney, spleen, and heart tissues of mice",[1],can effectively orally deliver
same,number of organs into which nucleic acid is significantly delivered,[1],two organs
same,oral delivery of sRNA single-stranded nucleic acid into the heart tissue of mice,[1]; [4],can significantly efficiently orally deliver
same,oral delivery of sRNA single-stranded nucleic acid into the spleen tissue of mice,[1]; [4],can significantly efficiently orally deliver
